These results are taken from patent US7456183B2, “Guanidino compounds” (Novartis Vaccines and Diagnostics, Inc., priority 2001, dated 2008).

This assay deals with MC4-R (Homo sapiens, UniProt P32245). As to the kind of experiment: cAMP Scintillation Proximity Assay in cells expressing MC4-R. It counts as cell-based. Conditions: intercellular cAMP measured with SPA kit, read-out: in vitro potency (as measured by EC50 value). Here is the method: EC50 values of test compounds were determined by treating cells expressing MC4-R with test compound and lysing the cells and measuring intercellular cAMP concentration with an Amersham-Pharmacia RPA-559 cAMP Scintillation Proximity Assay (SPA) kit. The following compounds were synthesized and tested according to this assay. The following compounds are merely illustrative and should not be construed as limiting of the instant invention.
Sequence of MC4-R (P32245 whole entry, species assumed): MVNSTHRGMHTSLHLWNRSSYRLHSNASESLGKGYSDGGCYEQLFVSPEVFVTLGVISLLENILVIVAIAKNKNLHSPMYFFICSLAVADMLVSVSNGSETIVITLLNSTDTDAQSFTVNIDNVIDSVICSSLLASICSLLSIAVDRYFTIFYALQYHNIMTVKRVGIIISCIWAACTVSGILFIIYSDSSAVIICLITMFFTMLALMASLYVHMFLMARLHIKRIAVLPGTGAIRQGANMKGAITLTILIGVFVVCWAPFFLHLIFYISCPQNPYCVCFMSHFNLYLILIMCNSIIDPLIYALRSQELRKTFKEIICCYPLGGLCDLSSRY

Each structure is given as a SMILES string.

For `C[C@@H]1[C@@H](N=C(Nc2ccc3c(c2)CCN(CCc2ccc(Cl)cc2Cl)C3=O)N2CCN[C@@H](C)C2)C[C@H]2C[C@@H]1C2(C)C` [Example 22, (3S)—N-{2-[2-(2,4-dichlorophenyl)ethyl]-1-oxo-1,2,3,4-tetrahydroisoquinolin-6-yl}-3-methyl-N′-[(1S,2S,5R)-2,6,6-trimethylbicyclo[3.1.1]hept-3-yl]piperazine-1-carboximidamide], the EC50 is less than 3 µM.
